Reference: patent US20250179047A1, “5-[7-(3,4-DIHYDRO-1H-ISOQUINOLINE-2-CARBONYL)-1,2,3,4 TETRAHYDROISOQUINOLIN-6-YL]-1H-PYRROLE-3-CARBOXAMIDE DERIVATIVES, PHARMACEUTICAL COMPOSITIONS CONTAINING THEM AND THEIR USES AS PRO-APOPTOTIC AGENTS” (LES LABORATOIRES SERVIER, priority 2022, published 2025)
pKi: −log10 of the molar value.

Key:
BCL2 WT = BCL2 WT (Homo sapiens (Human), UniProt P10415); test: TR-FRET competitive binding assay, BCL2 WT; settings: Ki determined from IC50, read-out: TR_FRET EKI_Bcl2 WT
Description: (§1) The relative binding potency of each compound was determined in a competitive binding assay using time resolved-fluorescence resonance energy transfer (TR-FRET). The method utilised a fluorescein labelled peptide derived from PUMA (5Flu-Ahx-[…]-NH2 wherein Ahx means 6-hexanoic acid monomer and the amino acid sequence is referred to as SEQ ID:01) which binds to a terbium labelled BCL2 or BCLXL protein. The degree of binding or corresponding compound inhibition can be quantified by the TR-FRET signal between the terbium donor and fluorescein acceptor.
(§2) The human BCL2_wild-type (also named BCL2_wt), BCL2_G101V mutant and BCLXL_wild-type were E. coli expressed as a N-terminal Halo-fusion proteins and singly labelled with Terbium on the Halo protein to afford the following amino acid sequences:
(§3) wherein the BCL2(1-207) sequence corresponds to UniProtKB® primary accession number P10415 and the BCLXL(2-196) sequence corresponds to UniProtKB® primary accession number Q07817-1.
(§4) The assay was performed in a 40 μL volume in white 384-standard well plates (Corning #3574). An 11-point serial dilution of each compound was prepared in DMSO and transferred directly to plate followed by addition of fluorescein labelled peptide and lastly protein. Final assay conditions were 0.5 nM BCL2_wt, BCL2_G101V, BCL2_D103Y, BCL2_F104I, BCL2_D111A or BCLXL_wt, 2 or 20 nM fluorescein labelled peptide, 50 mM Hepes pH 7.5, 150 mM NaCl, 0.5 mM TCEP (Tris(2-carboxyethyl)phosphine), 0.05% Tween 20, 5% DMSO. The mixture was incubated for 2 hours at 23° C.
(§5) TR-FRET measurements were performed on a Biotek Synergy Neo plate reader. TR-FRET was measured by excitation of the Terbium-donor at 340 nm and subsequent (delay time 100 μs) measurement of terbium and fluorescein emission at 495 nm and 520 nm, respectively, over a collection time of 300 μs. The TR-FRET signal was calculated as the emission-ratio at 520 nm over 495 nm.
(§6) The TR-FRET ratio readout for test compounds was normalized against 0% inhibition controls wells and 100% inhibition control wells. Test compound potency (IC50) was estimated by nonlinear regression using the sigmoidal dose-response (variable slope) using Xlfit 4 (IDBS, Guildford, Surrey, UK, model 205). Were the IC50 could not be determined the % inhibition at the highest tested concentration is given.
(§7) y=(A+((B−A)/(1+((C/x)^D))))
(§8) where y is the normalized TR-TRET ratio measurement for a given concentration of test compound, x is the concentration of test compound, A is the estimated efficacy (% inhibition) at infinite compound dilution, and B is the maximal efficacy (% inhibition). C is the IC50 value and D is the Hill slope coefficient.
(§9) The K1 values were determined from the IC50 values according to Cer et al, Nucleic Acids Res, 2009, July 1; 37 (WebServer issue): W441-W445.

BCL2 G101V [1] = target: BCL2 G101V (Homo sapiens, UniProt P10415, G101V); test: TR-FRET competitive binding assay, BCL2 G101V; settings: BCL2 G101V; Ki determined from IC50; read-out: TR_FRET EKI_Bcl2 G101V
Description: as §1, §2, §3, §4, §5, §6, §7, §8, §9

BCL2 G101V [2] = test: TR-FRET competitive binding assay, BCL2 G101V; design: species or system human; settings: ratio Ki BCL2 G101V / Ki BCL2 WT
Description: as §1, §2, §3, §4, §5, §6, §7, §8, §9

BCL2 D103Y = BCL2 D103Y (Homo sapiens, UniProt P10415, D103Y); test: TR-FRET competitive binding assay, BCL2 D103Y; settings: Ki determined from IC50, read-out: TR_FRET EKI_Bcl2 D103Y
Description: as §1, §2, §3, §4, §5, §6, §7, §8, §9

BCLXL WT = BCLXL WT (Homo sapiens (Human), UniProt Q07817); test: TR-FRET competitive binding assay, BCLXL WT; settings: for pKi: BCLXL WT, Ki determined from IC50, read-out: TR_FRET EKI BclxL; for TR_FRET EKI BCLxL/WT selectivty ratio: ratio Ki BCLxL / Ki BCL2 WT
Sequence of BCLXL WT (Q07817 other isoform, or with tags, fused parts or gaps): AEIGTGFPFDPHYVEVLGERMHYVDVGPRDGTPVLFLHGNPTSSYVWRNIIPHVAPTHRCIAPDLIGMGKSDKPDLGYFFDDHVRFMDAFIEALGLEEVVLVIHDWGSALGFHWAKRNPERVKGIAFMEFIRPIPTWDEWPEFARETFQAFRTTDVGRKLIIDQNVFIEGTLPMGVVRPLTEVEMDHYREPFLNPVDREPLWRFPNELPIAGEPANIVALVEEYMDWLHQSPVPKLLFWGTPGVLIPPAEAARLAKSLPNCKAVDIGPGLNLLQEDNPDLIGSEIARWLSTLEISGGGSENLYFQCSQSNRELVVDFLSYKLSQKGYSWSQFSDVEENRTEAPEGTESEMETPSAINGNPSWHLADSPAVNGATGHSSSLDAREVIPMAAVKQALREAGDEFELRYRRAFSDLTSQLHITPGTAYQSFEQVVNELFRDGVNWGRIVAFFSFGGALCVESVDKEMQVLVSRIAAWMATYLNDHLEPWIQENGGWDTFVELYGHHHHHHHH
Description: as §1, §2, §3, §4, §5, §6, §7, §8, §9

KMS-12-PE Bcl-2 WT = test: In vitro cytotoxicity CellTiter-Glo 48 h, KMS-12-PE Bcl-2 WT; assay type: cell-based; settings: Homo sapiens, KMS-12-PE, C50 = concentration needed to reach 50% of the cellular viability
Description: KMS-12-PE (ACC 606) were purchased from the Leibniz-Institute DSMZ (Braunschweig, Germany) and were grown at 37° C. in a humidified atmosphere with […] in media recommended by the suppliers. Lentiviral particles containing Bcl-2 wild type (also named “Bcl2 WT”) and Bcl-2 mutated on G101V (also named “Bcl2 G101V”) were cloned into pcLV-CMV-DEST-IRES-TagRFP. Lentiviral particles (1×106) were mixed with Polybrene at 8 µg/ml and transduced by spinoculation for 1 h at 32° C. and incubated overnight. After 8 days, TagRFP positive-cells were sorted by FACS. BCL2 expression was monitored by immunoblotting using anti-Flag and anti-BCL2 antibodies.
Cellular viability was monitored with the cell viability assay (CellTiter-Glo®) on KMS-12-PE WT and G101V cell lines. The CellTiter-Glo® (CTG) Luminescent Cell Viability Assay (from Promega) is a homogeneous method to determine the number of viable cells in culture based on quantitation of the ATP present, which signals the presence of metabolically active cells.
Dose response of compounds are performed with 10 mM stock solutions (DMSO), 11-points curve, in a 384-well compound plate. The assay plate is prepared by stamping 40 nL from compound dilution plate of all different concentrations (e.g. 10 mM to have final […] assay test) into a cell culture microplate, using Echo acoustic liquid handling (Labcyte, Beckman). 40 μl of cell solution is added and cells are incubated with compounds for 48 h at 37° C., 5% CO2. CTG was added to the cells (according to the manufacturer instructions) and luminescence intensity was recorded using the Pherastar plate reader (BMG).
This assay provides in vitro cellular potency of the tested Bcl-2 inhibitors, measuring the C50, defined as the concentration needed to reach 50% of the cellular viability.

| pKi (BCL2 WT) | pKi (BCL2 G101V [1]) | TR_FRET EKI G101V/WT selectivty ratio (BCL2 G101V [2]) | pKi (BCL2 D103Y) | pKi (BCLXL WT) | TR_FRET EKI BCLxL/WT selectivty ratio (BCLXL WT) | Structure (SMILES) | IC50 (KMS-12-PE Bcl-2 WT) |
| --- | --- | --- | --- | --- | --- | --- | --- |
| 9.89 | 8.25 | 43.8 | 9.46 | 7.82 | 117.3 | COc1ncc(N(C(=O)c2cc(-c3cc4c(cc3C(=O)N3Cc5ccccc5C[C@H]3C)CN(C(=O)Cc3ccc(OCCN5CCOCC5)cc3)CC4)n(C)c2C)c2ccccc2)cc1F [Example 183, N-(5-fluoro-6-methoxy-3-pyridyl)-1,2-dimethyl-5-[7-[(3R)-3-methyl-3,4-dihydro-1H-isoquinoline-2-carbonyl]-2-[2-[4-(2-morpholinoethoxy)phenyl]acetyl]-3,4-dihydro-1H-isoquinolin-6-yl]-N-phenyl-pyrrole-3-carboxamide] | 0.0143 µM |
| 10.52 | 8.70 | 66.2 | 10.05 | 7.91 | 411.3 | Cc1c(C(=O)N(c2ccccc2)c2cnn(C)c2)cc(-c2cc3c(cc2C(=O)N2Cc4ccccc4C[C@H]2C)CN(C(=O)Cc2ccc(OCCN4CCOCC4)cc2)CC3)n1C [Example 184, 1,2-dimethyl-5-[7-[(3R)-3-methyl-3,4-dihydro-1H-isoquinoline-2-carbonyl]-2-[2-[4-(2-morpholinoethoxy)phenyl]acetyl]-3,4-dihydro-1H-isoquinolin-6-yl]-N-(1-methylpyrazol-4-yl)-N-phenyl-pyrrole-3-carboxamide] | 0.0061 µM |
| 10.22 | 8.82 | 23.4 | 9.89 | 8.23 | 92.8 | Cc1c(N(C(=O)c2cc(-c3cc4c(cc3C(=O)N3Cc5ccccc5C[C@H]3C)CN(C(=O)Cc3ccc(OCCN5CCOCC5)cc3)CC4)n(C)c2C)c2ccc(F)cc2)cc(C#N)n1C [Example 185, N-(5-cyano-1,2-dimethyl-pyrrol-3-yl)-N-(4-fluorophenyl)-1,2-dimethyl-5-[7-[(3R)-3-methyl-3,4-dihydro-1H-isoquinoline-2-carbonyl]-2-[2-[4-(2-morpholinoethoxy)phenyl]acetyl]-3,4-dihydro-1H-isoquinolin-6-yl]pyrrole-3-carboxamide] | 0.0051 µM |
| 10.52 | 8.57 | 78.9 | 10.10 | 7.76 | 507.9 | Cc1nn(C)cc1N(C(=O)c1cc(-c2cc3c(cc2C(=O)N2Cc4ccccc4C[C@H]2C)CN(C(=O)Cc2ccc(OCCN4CCOCC4)cc2F)CC3)n(C)c1C)c1ccccc1 [Example 187, N-(1,3-dimethylpyrazol-4-yl)-5-[2-[2-[2-fluoro-4-(2-morpholinoethoxy)phenyl]acetyl]-7-[(3R)-3-methyl-3,4-dihydro-1H-isoquinoline-2-carbonyl]-3,4-dihydro-1H-isoquinolin-6-yl]-1,2-dimethyl-N-phenyl-pyrrole-3-carboxamide] | 0.0069 µM |
| 10.52 | 8.66 | 71.6 | 10.05 | 7.62 | 769.6 | Cc1nn(C)cc1N(C(=O)c1cc(-c2cc3c(cc2C(=O)N2Cc4ccccc4C[C@H]2C)CN(C(=O)Cc2ccc(OCCN4CCOCC4)cc2)CC3)n(C)c1C)c1ccccc1 [Example 188, N-(1,3-dimethylpyrazol-4-yl)-1,2-dimethyl-5-[7-[(3R)-3-methyl-3,4-dihydro-1H-isoquinoline-2-carbonyl]-2-[2-[4-(2-morpholinoethoxy)phenyl]acetyl]-3,4-dihydro-1H-isoquinolin-6-yl]-N-phenyl-pyrrole-3-carboxamide] | 0.0113 µM |
| 9.72 | 7.76 | 92.0 | 8.70 | 7.48 | 176.8 | COCC(=O)N1CCc2cc(-c3cc(C(=O)N(c4ccccc4)c4cc(C#N)n(C)c4C)c(C)n3C)c(C(=O)N3Cc4ccccc4C[C@H]3CN3CCCCC3)cc2C1 [Example 189, N-(5-cyano-1,2-dimethyl-pyrrol-3-yl)-5-[2-(2-methoxyacetyl)-7-[(3S)-3-(1-piperidylmethyl)-3,4-dihydro-1H-isoquinoline-2-carbonyl]-3,4-dihydro-1H-isoquinolin-6-yl]-1,2-dimethyl-N-phenyl-pyrrole-3-carboxamide] | 0.0299 µM |
| 10.30 | 8.44 | 73.4 | 9.92 | 7.77 | 342.7 | Cc1c(C(=O)N(c2ccccc2)c2cnn(C(F)F)c2)cc(-c2cc3c(cc2C(=O)N2Cc4ccccc4C[C@H]2C)CN(C(=O)Cc2ccc(OCCN4CCOCC4)cc2)CC3)n1C [Example 190, N-[1-(difluoromethyl)pyrazol-4-yl]-1,2-dimethyl-5-[7-[(3R)-3-methyl-3,4-dihydro-1H-isoquinoline-2-carbonyl]-2-[2-[4-(2-morpholinoethoxy)phenyl]acetyl]-3,4-dihydro-1H-isoquinolin-6-yl]-N-phenyl-pyrrole-3-carboxamide] | 0.0077 µM |
| 10.40 | 8.62 | 65.3 | 10.15 | 8.02 | 264.0 | COc1ccc(N(C(=O)c2cc(-c3cc4c(cc3C(=O)N3Cc5ccccc5C[C@H]3C)CN(C(=O)Cc3ccc(OCCN5CCOCC5)cc3)CC4)n(C)c2C)c2ccccc2)cn1 [Example 191, N-(6-methoxy-3-pyridyl)-1,2-dimethyl-5-[7-[(3R)-3-methyl-3,4-dihydro-1H-isoquinoline-2-carbonyl]-2-[2-[4-(2-morpholinoethoxy)phenyl]acetyl]-3,4-dihydro-1H-isoquinolin-6-yl]-N-phenyl-pyrrole-3-carboxamide] | 0.0131 µM |
